≈ marks a conversion by molar mass, not a printed value. Where “and” joins values, the source holds several entries; their conditions need not be identical. Equal entries are not always repeated. Calls of active or inactive are those of the source. The calls are words filed in the database; no cut-off is given here.
What was measured:
[1] = system: Staphylococcus aureus; experiment: Synergistic antibacterial activity against Staphylococcus aureus ATCC 25923 assessed as fractional inhibitory concentration index incubated for 18 to 20 hrs in presence of linezolid by checkboard assay; format: functional; conditions: time 18-20 hrs
[2] = system: Staphylococcus aureus; experiment: Antibacterial activity against Staphylococcus aureus ATCC 25923 assessed as inhibition of bacterial growth at 40 uM incubated for 18 to 24 hrs by broth microdilution assay relative to control; format: functional; conditions: time 18-24 hrs
[3] = system: Cell membrane; experiment: Induction of cell membrane permeability in Staphylococcus aureus ATCC 25923 assessed as increase in fluorescence intensity at 4 times MIC incubated for 30 mins by PI staining based analysis; format: cell membranes
[4] = system: Staphylococcus aureus; experiment: Synergistic antibacterial activity against Staphylococcus aureus ATCC 25923 assessed as linezolid MIC incubated for 18 to 20 hrs by checkboard assay; format: functional; conditions: time 18-20 hrs
[5] = system: Enterococcus faecalis; experiment: Antibacterial activity against Enterococcus faecalis ATCC 29212 assessed as reduction in bacterial growth incubated for 18 to 20 hrs by broth microdilution assay; format: functional; conditions: time 18-20 hrs
[6] = Toxicity in Caenorhabditis elegans AU37 assessed as worms survival at 10 uM measured after 72 hrs
[7] = system: Staphylococcus aureus; experiment: Synergistic antibacterial activity against Staphylococcus aureus ATCC 25923 incubated for 18 to 20 hrs in presence of vancomycin by checkboard assay; format: functional; conditions: time 18-20 hrs
[8] = Cytotoxicity against human THP-1 cells assessed as reduction in cell viability incubated for 24 hrs by resazurin staining based analysis; format: toxicity
[9] = system: Staphylococcus aureus; experiment: Bactericidal activity against Staphylococcus aureus ATCC 25923 assessed as reduction in bacterial growth at 0.5 to 8 times MIC incubated for 24 hrs by time-kill assay; format: functional
[10] = Selectivity index, ratio of CC50 for cytotoxicity against human THP-1 cells assessed as reduction in cell viability to MIC for antibacterial activity against methicillin-resistant Staphylococcus aureus assessed as reduction in bacterial growth; format: toxicity, cell-based; conditions: read-out: Selectivity Index
[11] = system: Acinetobacter baumannii; experiment: Antibacterial activity against Acinetobacter baumannii NCTC 13423 assessed as reduction in bacterial growth incubated for 18 to 20 hrs by broth microdilution assay; format: functional; conditions: time 18-20 hrs
[12] = system: Staphylococcus aureus; experiment: Synergistic antibacterial activity against Staphylococcus aureus ATCC 25923 assessed as fractional inhibitory concentration index incubated for 18 to 20 hrs in presence of vancomycin by checkboard assay; format: functional; conditions: time 18-20 hrs
[13] = system: Enterococcus faecalis; experiment: Antibacterial activity against vancomycin-resistant Enterococcus faecalis ATCC 51575 assessed as reduction in bacterial growth incubated for 18 to 20 hrs by broth microdilution assay; format: functional; conditions: time 18-20 hrs
[14] = system: Cell membrane; experiment: Induction of cytoplasmic membrane depolarization in Staphylococcus aureus ATCC 25923 assessed as increase in fluorescence intensity at 4 times MIC measured for 30 mins by DiSC3(5) dye based fluorescence method; format: cell membranes
[15] = system: Staphylococcus aureus; experiment: Bactericidal activity against Staphylococcus aureus ATCC 25923 at 4 times MIC measured after 6 hrs by time kill-assay; format: functional, organism-based
[16] = system: Staphylococcus aureus; experiment: Antibacterial activity against Staphylococcus aureus ATCC 25923 assessed as reduction in bacterial growth incubated for 18 to 20 hrs by broth microdilution assay; format: functional; conditions: time 18-20 hrs
[17] = system: Staphylococcus aureus; experiment: Drug resistance, ratio of MIC for methicillin-resistant Staphylococcus aureus after 20 days exposure to MIC for methicillin-resistant Staphylococcus aureus during first exposure; format: functional; conditions: time 20 day
[18] = system: Staphylococcus aureus; experiment: Synergistic antibacterial activity against methicillin-resistant Staphylococcus aureus ATCC 43300 assessed as vancomycin MIC incubated for 18 to 20 hrs by checkboard assay; format: functional; conditions: time 18-20 hrs
[19] = system: Enterococcus faecalis; experiment: Synergistic antibacterial activity against Enterococcus faecalis ATCC 29212 assessed as linezolid MIC incubated for 18 to 20 hrs by checkboard assay; format: functional; conditions: time 18-20 hrs
[20] = system: Staphylococcus aureus; experiment: Bactericidal activity against methicillin-resistant Staphylococcus aureus assessed as reduction in bacterial growth at 0.5 to 8 times MIC incubated for 24 hrs by time-kill assay; format: functional
[21] = system: Staphylococcus aureus; experiment: Bactericidal activity against Staphylococcus aureus ATCC 25923 assessed as log reduction in colony forming units at 0.5 to 8 times MIC measured after 24 hrs by time kill-assay; format: functional
[22] = system: Staphylococcus aureus; experiment: Synergistic antibacterial activity against Staphylococcus aureus ATCC 25923 assessed as ciprofloxacin MIC incubated for 18 to 20 hrs by checkboard assay; format: functional; conditions: time 18-20 hrs
[23] = system: Enterococcus faecalis; experiment: Bactericidal activity against Enterococcus faecalis ATCC 29212 assessed as reduction in bacterial growth at 0.5 to 8 times MIC incubated for 24 hrs by time-kill assay; format: functional
[24] = system: A549; experiment: Cytotoxicity against human A549 cells assessed as reduction in cell viability at 100 uM incubated for 24 hrs by resazurin staining based analysis relative to control; format: functional
[25] = system: Staphylococcus aureus; experiment: Synergistic antibacterial activity against Staphylococcus aureus ATCC 25923 assessed as fractional inhibitory concentration index incubated for 18 to 20 hrs in presence of gentamicin by checkboard assay; format: functional; conditions: time 18-20 hrs
[26] = Hemolytic activity in mouse RBC assessed as hemolysis at 250 uM incubated for 1 hr; format: toxicity, cell-based, Erythrocyte; conditions: mouse red blood cells (erythrocytes), read-out: Activity
[27] = Selectivity index, ratio of CC50 for cytotoxicity against human THP-1 cells assessed as reduction in cell viability to MIC for antibacterial activity against methicillin-resistant Staphylococcus epidermidis assessed as reduction in bacterial growth; format: toxicity, cell-based; conditions: read-out: Selectivity Index
[28] = system: Staphylococcus aureus; experiment: Synergistic antibacterial activity against Staphylococcus aureus ATCC 25923 incubated for 18 to 20 hrs in presence of linezolid by checkboard assay; format: functional; conditions: time 18-20 hrs
[29] = system: Staphylococcus aureus; experiment: Synergistic antibacterial activity against methicillin-resistant Staphylococcus aureus ATCC 43300 assessed as linezolid MIC incubated for 18 to 20 hrs by checkboard assay; format: functional; conditions: time 18-20 hrs
[30] = Selectivity index, ratio of CC50 for cytotoxicity against human THP-1 cells assessed as reduction in cell viability to MIC for antibacterial activity against methicillin-resistant Enterococcus faecalis assessed as reduction in bacterial growth; format: toxicity, cell-based; conditions: read-out: Selectivity Index
[31] = system: Staphylococcus aureus; experiment: Synergistic antibacterial activity against methicillin-resistant Staphylococcus aureus ATCC 43300 assessed as fractional inhibitory concentration index incubated for 18 to 20 hrs in presence of ciprofloxacin by checkboard assay; format: functional; conditions: time 18-20 hrs
[32] = system: Staphylococcus aureus; experiment: Bactericidal activity against Staphylococcus aureus ATCC 25923 assessed as log reduction in colony forming units at 4 to 8 times MIC measured after 1 to 2 hrs by time kill-assay; format: functional; conditions: time 1-2 hrs
[33] = system: Enterococcus faecalis; experiment: Synergistic antibacterial activity against Enterococcus faecalis ATCC 29212 assessed as fractional inhibitory concentration index incubated for 18 to 20 hrs in presence of gentamicin by checkboard assay; format: functional; conditions: time 18-20 hrs
[34] = system: Staphylococcus aureus; experiment: Synergistic antibacterial activity against methicillin-resistant Staphylococcus aureus ATCC 43300 incubated for 18 to 20 hrs in presence of ciprofloxacin by checkboard assay; format: functional; conditions: time 18-20 hrs
[35] = system: Enterococcus faecalis; experiment: Synergistic antibacterial activity against Enterococcus faecalis ATCC 29212 assessed as vancomycin MIC incubated for 18 to 20 hrs by checkboard assay; format: functional; conditions: time 18-20 hrs
[36] = system: Staphylococcus aureus; experiment: Synergistic antibacterial activity against methicillin-resistant Staphylococcus aureus ATCC 43300 assessed as ciprofloxacin MIC incubated for 18 to 20 hrs by checkboard assay; format: functional; conditions: time 18-20 hrs
[37] = system: Enterococcus faecalis; experiment: Synergistic antibacterial activity against Enterococcus faecalis ATCC 29212 incubated for 18 to 20 hrs in presence of gentamicin by checkboard assay; format: functional; conditions: time 18-20 hrs
[38] = system: Enterococcus faecalis; experiment: Synergistic antibacterial activity against Enterococcus faecalis ATCC 29212 assessed as fractional inhibitory concentration index incubated for 18 to 20 hrs in presence of linezolid by checkboard assay; format: functional; conditions: time 18-20 hrs
[39] = system: Staphylococcus aureus; experiment: Synergistic antibacterial activity against methicillin-resistant Staphylococcus aureus ATCC 43300 assessed as gentamicin MIC incubated for 18 to 20 hrs by checkboard assay; format: functional; conditions: time 18-20 hrs

In the case of O=C(O)c1cc2cc(OCc3ccc(C4CCCCC4)c(C(F)(F)F)c3)ccc2[nH]1, the “fractional inhibitory concentration index (FICI)” value [1] is reported as 1, the inhibition at 40 µM [2] is reported as no more than 90% and the Activity [3] is reported as “inactive”. For the same compound, the MIC [4] was 5 µM, the MIC [5] was 5 µM (≈ 2.09 µg/mL) and the Activity [6] was “Non-Toxic”. The MIC [7] was 2.2 µM, the CC50 at 24 h [8] was greater than 100 µM and the MBC [9] was 5 µM (≈ 2.09 µg/mL). The selectivity ratio [10] was greater than 12, the MIC [11] was greater than 200 µM and the “fractional inhibitory concentration index (FICI)” value [12] was 0.75. For the same compound, the MIC [13] was 10 µM (≈ 4.17 µg/mL), the Activity [14] was “inactive” and the Activity [15] was “Active”. The MIC [16] was 5 µM and 2.1 µg/mL, the Ratio [17] was 3 and the MIC [18] was 1.25 µM. For the same compound, the MIC [19] was 10 µM, the MBC [20] was 5 µM (≈ 2.09 µg/mL) and the “log(activity)” value [21] was greater than 5. The MIC [22] was 0.312 µM, the MBC [23] was 5 µM (≈ 2.09 µg/mL) and the Activity [24] was roughly 20%. For the same compound, the “fractional inhibitory concentration index (FICI)” value [25] was 0.5, the hemolysis at 1 h, 250 µM [26] was 100% and the selectivity ratio [27] was greater than 12. It also gave an MIC [28] of 2.5 µM, an MIC [29] of 5 µM and a selectivity ratio [30] greater than 12. For the same compound, the “fractional inhibitory concentration index (FICI)” value [31] was 1, the “log(activity)” value [32] was greater than 3 and the “fractional inhibitory concentration index (FICI)” value [33] was 0.375. It also gave an MIC [34] of 1.25 µM, an MIC [35] of 2.5 µM and an MIC [36] of 1.25 µM. The MIC [37] was 1.25 µM, the “fractional inhibitory concentration index (FICI)” value [38] was 2 and the MIC [39] was 32 mg/L.

— ChEMBL document CHEMBL5532643, “Design and synthesis of etrasimod derivatives as potent antibacterial agents against Gram-positive bacteria” (Eur J Med Chem, 2024)
